# Reference: patent US20120308567A1, “USE OF TYROSINE KINASE INHIBITORS FOR TREATMENT OF PROLACTINOMA” (CEDARS-SINAI MEDICAL CENTER, priority 2010, published 2012)
# “Also recorded” adds a separate entry of the source.
# Columns and labels:
# [1] = test system: GH3 cells stably expressing HER2CA; assay: Cell proliferation assay (cell counts); assay type: cell-based, rat; conditions: for cell number: HER2CA GH3 cells, 0.1-10 μM, 24 h treatment
# Experimental: pcDNA3 and HER2CA cells were plated at a density of 2×10^4 per well in 12-well plates or 4×10^3 cells per well in 96-well plates with growth medium. For 12-well plates, cells were counted by hemocytometer at the indicated times. For 96-well plates, premixed WST-1 cell proliferation reagent (Roche Molecular Biochemicals) was added (1:10) at the indicated times and incubated for 4 h at 37° C. in a humidified atmosphere maintained at 5% CO2, and absorbance was then measured at 450 nm. WST-1 is a colorimetric assay for quantification of cell proliferation and cell viability, based on the cleavage of the tetrazolium salt by mitochondrial dehydrogenases in viable cells.
# [2] = test system: GH3 cells stably expressing HER2CA; assay: Soft agarose colony-forming assay, HER2CA transfectants; assay type: cell-based, rat; conditions: for suppression of colony formation in soft agar: Her2CA-GH3 cells
# Experimental: B. GH3 cells stably expressing HER2CA or pcDNA3 were plated (4,000 per well) in 96 well plates for the indicated times, and WST assay performed. C. […] Values are mean±SEM. *p<0.05, ** p<0.01, ^‡p<0.05 vs pcDNA3 control, ^†p<0.05 vs HER2CA control, ^‡‡p<0.05 vs pcDNA3 control, ^††p<0.05 vs HER2CA control.
# Base layers consisting of growth medium containing 0.6% low-melting point agarose (Invitrogen) were poured onto 6-well plates and allowed to solidify. Cells (8×10^3 per well) were plated in triplicate in top layers consisting of growth medium containing 0.3% agarose. Seven to ten days later, cells were stained with 0.2% iodonitrotetrazolium chloride (Invitrogen), and colonies composed of 50 cells were counted manually in 5 randomly selected fields.
# HER2CA GH3 tumors = assay: HER2CA GH3 subcutaneous tumors in Wistar-Furth rats; assay type: in vivo, rat; conditions: for suppression of postmortem tumor weight / suppression of serum PRL levels / HER2CA tumor volume: Wistar-Furth rats; for suppression of postmortem tumor weight / suppression of serum PRL levels: 100 mg/kg daily oral gavage; for HER2CA tumor volume: 100 mg/kg daily oral gavage from day 3 after inoculation, vehicle 924±48
# Experimental: B-C. […] (B). Tumor weights were measured after euthanasia (C). Serum PRL levels were measured by RIA (D), and ex vivo Realtime PCR performed (E). Tumor volumes were calculated using the formula, π/6×large diameter×small diameter^2.
# In accordance with Institutional Animal Care and Use Committee guidelines, 4-5 wk old female Wistar-Furth rats (Harlan Sprague Dawley, Inc.) were inoculated with pcDNA3 (n=6) or HER2CA (n=6) cells (3×10^6 cells/rat). Rats were fed with a commercial pelleted diet ad libitum and tap water. Tumor volumes were measured with a caliper and calculated using the formula, π/6×large diameter×small diameter^2 as previously described (8). […] 500 μl blood was collected twice for hormone assessment (before inoculation, 2 days after inoculation) by retro-orbital bleeding. This procedure was performed under isoflurane inhalational anesthesia via a nose cone connected to a rodent anesthesia machine (Kent Scientific Corporation). On the last treatment day (day 7), rats were euthanized within 3 h of drug administration. Cardiac blood was collected with 18-gauge syringes and tumors excised and weighed. Fragments of each tumor were fixed in formalin and embedded in paraffin for immunohistochemical staining, preserved in RNA later solution (Ambion) for subsequent RNA extraction and frozen in liquid nitrogen for subsequent protein extraction.
# To evaluate in vivo effects of HER2 overexpression on lactosomatotroph tumor growth, HER2CA or pcDNA3 transfectants were inoculated subcutaneously into female Wistar-Furth rats. […] Next, the effects of lapatinib administration on tumor growth and hyperprolactinemia were examined. […] After euthanasia, tumors were excised and immediately weighed and processed.
# human prolactinoma cells [3] = assay: Realtime PCR of PRL in primary human prolactinoma cell cultures; assay type: cell-based; conditions: for suppression of PRL mRNA levels: 24 hr
# Experimental: (§1) A, B, D, and E. After trans-sphenoidal surgery of human prolactinomas, tumor cells were cultured. […] PRL levels in culture media were measured using RIA (B). H&E and PRL staining of tumor and confocal immunocytochemistry of EGFR and HER2 (Tumor A) (C), or for Tumor B (F). Magnification of these figures was 100×. […] PRL levels in culture media were measured using RIA (E). Prolactinoma cells (Tumor B) were treated with U0126 (0.1-5 μM) for 24 hr, and Realtime PCR of PRL performed (G).
# Total RNA was extracted with Trizol reagent (Invitrogen) according to instructions of the manufacturer. The amount and the integrity of RNA were assessed by measurement of absorbance at 260 and 280 nm. Total RNA was reverse-transcribed into first-strand cDNA using iScript cDNA synthesis kit (Bio-Rad Laboratories, Inc.) according to the manufacturer. Quantitative PCR reactions were carried out in the iQ5 Multicolor Real-time PCR Detection System (Bio-Rad Laboratories, Inc.) as described (8). Certified RT^2 primer assays for rat GH, PRL and human PRL were purchased from SuperArray. Primer sequences (Invitrogen) were 5′-[…]-3′ (18S rRNA forward (F)), 5′-[…]-3′ (18S rRNA reverse (R)), 5′-[…]-3′ (human (3-actin F), 5′-[…]-3′ (human (3-actin R), 5′-[…]-3′ (human GAPDH F), 5′-[…]-3′ (human GAPDH R).
# (§2) Human prolactinoma tissues were obtained at the time of surgery (Pituitary Center, Cedars-Sinai Medical Center) and transferred in 0.3% BSA containing DMEM according to an IRB-approved protocol. After washing with medium, tumor tissues were chopped with a sterile scalpel into approximately 1-2 mm pieces. Tissues were rinsed and digested with DMEM containing 0.3% BSA, 0.35% collagenase, and 0.15% hyaluronidase at 37° C. for 30 min The mixture was centrifuged at 1,500 rpm for 5 min at 4° C., and the cell pellet resuspended in an appropriate volume of culture medium containing 10% FBS and antibiotics in 48 well plates. After 24 hr incubation with serum depleted starvation medium (DMEM with 0.3% BSA), treatment agents were added with fresh serum-depleted medium (0.3% BSA), and medium collected for RIA. RNA was extracted after 24 hr treatment. Medium was also collected at baseline. To normalize for cell number effect, the PRL value of treated medium was divided by that of pre-treatment starvation medium to obtain a treated value for each well (n=4).
# human prolactinoma cells [4] = assay: RIA of PRL in culture media of primary human prolactinoma cell cultures; assay type: cell-based; conditions: for suppression of PRL secretion into the culture medium: 24 hr
# Experimental: as §1, §2
# [5] = test system: GH3 cells stably expressing HER2CA; assay: Western blotting of cleaved caspase-3 (apoptosis); conditions: 0.1-10 μM, 24 hr
# [6] = Tumor A, lapatinib 0.1-10 μM or gefitinib 10 μM
# [7] = human primary prolactinoma tumor cell cultures, tumor not named
SMILES,cell number [1],"suppression of cell number, HER2 overexpressing vs pcDNA3 transfectants ([1]; pcDNA3 and HER2CA transfectants compared)","colony formation in soft agar ([2]; HER2CA GH3 cells, 0.1-10 μM every third day)",suppression of colony formation in soft agar [2],suppression of postmortem tumor weight (HER2CA GH3 tumors),suppression of serum PRL levels (HER2CA GH3 tumors),HER2CA tumor volume (HER2CA GH3 tumors),"change in Her2CA-GH3 tumor size (HER2CA GH3 tumors; rats, after one week of treatment)",suppression of PRL mRNA levels (human prolactinoma cells [3]; [6]),"suppression of PRL mRNA levels (human prolactinoma cells [3]; Tumor B, 0.01-10 μM)",suppression of human PRL mRNA expression (human prolactinoma cells [3]; [7]),suppression of PRL secretion into the culture medium (human prolactinoma cells [4]; [6]),"suppression of PRL secretion into the culture medium (human prolactinoma cells [4]; Tumor B, 0.01-10 μM)",suppression of human PRL secretion (human prolactinoma cells [4]; [7]),induction of cleaved caspase-3 [5]
"CS(=O)(=O)CCNCc1ccc(-c2ccc3ncnc(Nc4ccc(OCc5cccc(F)c5)c(Cl)c4)c3c2)o1 [lapatinib, Lapatinib]",decreased in a dose-dependent manner,enhanced in HER2 overexpressing transfectants,fewer HER2CA colonies,~80%,~40%,~50%,549±45 mm^3,−40%,~90%,~45%,~80%,~70%,~60%,~70%,dose-dependently induced cleaved caspase3; also recorded: induced cleaved-caspase 3
COc1cc2ncnc(Nc3ccc(F)c(Cl)c3)c2cc1OCCCN1CCOCC1 [gefitinib],decreased in a dose-dependent manner,,,~50%,~30%,~40%,695±63 mm^3,,no effect,~45%,,~50%,~40%,,dose-dependently induced cleaved caspase3
